Values quoted from earlier work in US20250114351A1, “5-HT2C RECEPTOR MODULATING AGENTS FOR THE TREATMENT OF NEURODEGENERATIVE, MENTAL, COGNITIVE AND AUTOIMMUNE CNS DISORDERS” (priority 2022, published 2025).

Assays:
5-HT2A = 5-HT2A (Homo sapiens, UniProt P28223)
5-HT2C = target: T1, 5-HT2C (Homo sapiens, UniProt P28335)
T1 sequence (P28335 33-458): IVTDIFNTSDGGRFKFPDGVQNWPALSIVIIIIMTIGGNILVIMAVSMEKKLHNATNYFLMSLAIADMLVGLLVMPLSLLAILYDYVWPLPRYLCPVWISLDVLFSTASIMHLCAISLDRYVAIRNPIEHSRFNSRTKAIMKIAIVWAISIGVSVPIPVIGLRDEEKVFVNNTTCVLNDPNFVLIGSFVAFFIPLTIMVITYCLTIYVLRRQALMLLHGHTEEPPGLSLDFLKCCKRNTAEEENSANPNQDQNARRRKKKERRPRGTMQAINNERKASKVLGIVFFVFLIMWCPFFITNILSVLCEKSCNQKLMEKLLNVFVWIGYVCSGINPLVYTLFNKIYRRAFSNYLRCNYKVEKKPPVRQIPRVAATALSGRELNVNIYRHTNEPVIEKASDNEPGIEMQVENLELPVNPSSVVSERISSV

5-HT2B = 5-HT2B (Homo sapiens, UniProt P41595)
5-HT2B, sequence (P41595 whole entry, species assumed): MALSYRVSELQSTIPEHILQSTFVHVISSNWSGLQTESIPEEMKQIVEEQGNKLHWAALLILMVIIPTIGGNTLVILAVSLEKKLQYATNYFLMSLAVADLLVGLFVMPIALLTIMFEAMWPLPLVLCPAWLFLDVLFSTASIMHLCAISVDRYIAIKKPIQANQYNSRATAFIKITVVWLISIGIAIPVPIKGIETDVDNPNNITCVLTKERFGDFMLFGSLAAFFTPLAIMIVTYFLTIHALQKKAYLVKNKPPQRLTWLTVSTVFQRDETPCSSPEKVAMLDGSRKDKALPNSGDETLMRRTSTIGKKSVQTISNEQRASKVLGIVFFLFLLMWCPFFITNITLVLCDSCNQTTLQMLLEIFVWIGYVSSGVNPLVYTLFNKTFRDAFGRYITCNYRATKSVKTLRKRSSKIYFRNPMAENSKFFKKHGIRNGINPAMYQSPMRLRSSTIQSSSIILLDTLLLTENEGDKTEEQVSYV

5-HT2A, sequence (P28223 whole entry, species assumed): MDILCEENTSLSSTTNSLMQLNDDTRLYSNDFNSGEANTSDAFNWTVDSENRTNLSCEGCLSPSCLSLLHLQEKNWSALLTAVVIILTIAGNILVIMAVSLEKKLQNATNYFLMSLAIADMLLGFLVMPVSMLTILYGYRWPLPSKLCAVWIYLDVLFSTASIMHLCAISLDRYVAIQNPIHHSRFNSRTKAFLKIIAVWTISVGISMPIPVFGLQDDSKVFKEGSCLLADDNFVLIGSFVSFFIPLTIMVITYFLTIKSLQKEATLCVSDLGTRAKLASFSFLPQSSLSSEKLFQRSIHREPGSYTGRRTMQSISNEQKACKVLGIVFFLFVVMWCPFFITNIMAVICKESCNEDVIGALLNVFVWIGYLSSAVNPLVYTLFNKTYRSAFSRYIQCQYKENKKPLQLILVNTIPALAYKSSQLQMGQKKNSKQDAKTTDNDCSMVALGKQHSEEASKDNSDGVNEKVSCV

SMILES | 5-HT2A Emax (5-HT2A) | EC50 (5-HT2A) | 5-HT2C Emax (5-HT2C) | 5-HT2B Emax (5-HT2B) | EC50 (5-HT2B)
Clc1cccc(COc2cncc(N3CCNCC3)n2)c1 [CP-809101, 2-(3-Chlorobenzyloxy)-6-(piperazin-1-yl)pyrazine] | 67% | 153 nM |  |  | 
C[C@H]1CNCCc2ccc(Cl)cc21 [Lorcaserin, (1R)-8-chloro-2,3,4,5-tetrahydro-1-methyl-1H-3-benzazepine] | 75% |  | 100% |  | 
C[C@H](N)Cn1ccc2cc(F)c(Cl)cc21 [RO 60-01752, (S)-2-(6-chloro-5-fluoroindol-1-yl)-1-methylethylamine] | 91 ± 5% |  | 88 ± 20% | 130 ± 30% | 
c1cc2c3c(c1)[C@H]1CCC[C@H]1CN3CCNC2 [Vabicaserin] |  | 1650 nM |  |  | 
c1cc2c3c(c1)[C@H]1CCC[C@H]1N3CCNC2 [WAY-163909, (7bR,10aR)-1,2,3,4,8,9,10,10a-octahydro-7bH-cyclopenta-[b][1,4]diazepino[6,7,1hi]indole] |  |  |  |  | 185 ± 105 nM
